In patent US8242174B2 (priority 2007, dated 2012) one finds Ki data, which are given here for 42 compounds.

pKi: −log10 of the molar value. Where a name gives a salt, the structure may show the parent alone.

The test deals with Lethal factor protease (Bacillus anthracis, UniProt P15917). In words: biochemical.
Chain of Lethal factor protease (P15917 34-809 limits assumed): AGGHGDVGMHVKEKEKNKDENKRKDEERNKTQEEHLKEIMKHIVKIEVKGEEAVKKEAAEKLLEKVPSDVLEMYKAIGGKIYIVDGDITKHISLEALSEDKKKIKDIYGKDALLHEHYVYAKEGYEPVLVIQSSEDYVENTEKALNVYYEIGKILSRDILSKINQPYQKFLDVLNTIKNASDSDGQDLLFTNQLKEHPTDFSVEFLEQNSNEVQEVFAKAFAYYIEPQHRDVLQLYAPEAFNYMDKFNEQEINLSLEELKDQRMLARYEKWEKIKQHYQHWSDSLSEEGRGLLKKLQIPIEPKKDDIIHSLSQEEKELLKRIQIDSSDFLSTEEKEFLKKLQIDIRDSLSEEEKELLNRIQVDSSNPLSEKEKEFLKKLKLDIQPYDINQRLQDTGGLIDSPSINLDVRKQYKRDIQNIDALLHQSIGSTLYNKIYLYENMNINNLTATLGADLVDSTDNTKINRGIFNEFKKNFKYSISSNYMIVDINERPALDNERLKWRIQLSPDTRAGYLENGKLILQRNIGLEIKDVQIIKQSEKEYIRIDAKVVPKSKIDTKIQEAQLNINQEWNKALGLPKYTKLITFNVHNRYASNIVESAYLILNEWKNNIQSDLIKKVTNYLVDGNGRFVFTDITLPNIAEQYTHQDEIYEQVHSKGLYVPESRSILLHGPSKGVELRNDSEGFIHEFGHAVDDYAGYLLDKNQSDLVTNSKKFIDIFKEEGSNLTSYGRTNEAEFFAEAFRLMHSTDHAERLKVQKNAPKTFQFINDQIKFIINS
By pKi is commonly meant −log10 of the Ki, conventionally taken in molar units. With `Cc1cc(N[C@H](Cc2ccccc2)C(=O)NO)cc(C)c1F` [Compound 167378, (R)-2-(4-Fluoro-3,5-dimethyl-phenylamino)-N-hydroxy-3-phenyl-propionamide], the pKi was 5.15. In the case of `Cc1cc(N[C@H](C(=O)NO)C(C)C)ccc1F` [Compound 167268, (S)-2-(4-Fluoro-3-methyl-phenylamino)-N-hydroxy-3-methyl-butyramide hydrochloride], the pKi was < 3.52. The compound `Cc1cc(NCC(=O)NO)ccc1F` [Compound 166986, 2-(4-Fluoro-3-methyl-phenylamino)-N-hydroxy-acetamide] showed a negative logarithm of the Ki (pKi) of 5.12.

`Cc1cc(N[C@H](CC(C)C)C(=O)NO)cc(C)c1F` [Compound 167402, (R)-2-(4-Fluoro-3,5-dimethyl-phenylamino)-4-methyl-pentanoic acid hydroxyamide] gave a pKi of 6.17. As for `Cc1cc(N[C@H](CCCCn2c(C)ccc2C)C(=O)NO)cc(C)c1F` [Compound 167605, (R)-6-(2,5-Dimethyl-pyrrol-1-yl)-2-(4-fluoro-3,5-dimethyl-phenylamino)-hexanoic acid hydroxyamide], the negative logarithm of the Ki (pKi) was 5.70. This pKi is 0.47 log units lower than that of the compound before. To `CCCC[C@@H](Nc1cc(C)c(F)c(C)c1)C(=O)NO` [Compound 167294, (R)-2-(4-Fluoro-3,5-dimethyl-phenylamino)-hexanoic acid hydroxyamide] belongs 6.28; to `Cc1cc(N[C@H](CCCCNS(=O)(=O)c2cccc([N+](=O)[O-])c2)C(=O)NO)cc(C)c1F` [Compound 167622, (R)-2-(4-Fluoro-3,5-dimethyl-phenylamino)-6-(3-nitro-benzenesulfonylamino)-hexanoic acid hydroxyamide], 6.82; to `Cc1cc(N[C@@H](C(=O)NO)C(C)C)cc(C)c1F` [Compound 167264, (R)-2-(4-Fluoro-3,5-dimethyl-phenylamino)-N-hydroxy-3-methyl-butyramide], 5.51. For the compound `Cc1cc(C(=O)NCCCC[C@@H](Nc2cc(C)c(F)c(C)c2)C(=O)NO)ccc1F` [Compound 167551, (R)-4-Fluoro-N-[5-(4-fluoro-3,5-dimethyl-phenylamino)-5-hydroxycarbamoyl-pentyl]-3-methyl-benzamide], the pKi was 6.41. For `Cc1cc(N[C@H](CCCCNC(=O)OC(C)(C)C)C(=O)NO)ccc1F` [Compound 167926, (R)-[5-(4-Fluoro-3-methyl-phenylamino)-5-hydroxycarbamoyl-pentyl]-carbamic acid tert-butyl ester] the value was 5.54; for `CC[C@@H](Nc1cc(C)c(F)c(C)c1)C(=O)NO` [Compound 167450, (R)-2-(4-Fluoro-3,5-dimethyl-phenylamino)-N-hydroxy-butyramide], 6.17; for `Cc1cc(N[C@H](CCCCNCc2cc3ccccc3o2)C(=O)NO)ccc1F` [Compound 168166, (R)-6-[(Benzofuran-2-ylmethyl)-amino]-2-(4-fluoro-3-methyl-phenylamino)-hexanoic acid hydroxyamide], 6.74.

In the case of `CCCCC(Nc1ccc(F)c(C#N)c1)C(=O)NO` (stereo not drawn) [Compound 167720, 2-(3-Cyano-4-fluoro-phenylamino)-hexanoic acid hydroxyamide], the pKi was 4.93. Against the preceding compound, the pKi is 1.81 log units lower. For `Cc1cc(N[C@H](CO)C(=O)NO)cc(C)c1F` [Compound 167485, (R)-2-(4-Fluoro-3,5-dimethyl-phenylamino)-3,N-dihydroxy-propionamide] the value was 6.23; for `Cc1cc(CCCCCC[C@@H](Nc2cc(C)c(F)c(C)c2)C(=O)NO)ccc1F` [Compound 168118, (R)-2-(4-Fluoro-3,5-dimethyl-phenylamino)-8-(4-fluoro-3-methyl-phenyl)-octanoic acid hydroxyamide], 5.14; for `Cc1cc(N[C@@H](C)C(=O)NO)ccc1F` [Compound 167364, (S)-2-(4-Fluoro-3-methyl-phenylamino)-N-hydroxy-propionamide], 4.06. In the case of `Cc1cc(N[C@H](CCCCN(Cc2ccccc2)Cc2ccccc2)C(=O)NO)cc(C)c1F` [Compound 167738, (R)-6-Dibenzylamino-2-(4-fluoro-3,5-dimethyl-phenylamino)-hexanoic acid hydroxyamide], the pKi was 6.37. To `Cc1cc(N[C@H](CCCCNC(=O)CCCc2ccccc2)C(=O)NO)ccc1F` [Compound 167994, (R)-2-(4-Fluoro-3-methyl-phenylamino)-6-(4-phenyl-butyrylamino)-hexanoic acid hydroxyamide] belongs 6.19.

Consider `CCCCC(Nc1cc(Br)cc(Br)c1)C(=O)NO` (stereo not drawn) [Compound 167843, 2-(3,5-Dibromo-phenylamino)-hexanoic acid hydroxyamide], for which the negative logarithm of the Ki (pKi) was 4.28. To `Cc1cc(N[C@H](CCCCN(CC2CCCCC2)CC2CCCCC2)C(=O)NO)ccc1F` [Compound 167991, (R)-6-(Bis-cyclohexylmethyl-amino)-2-(4-fluoro-3-methyl-phenylamino)-hexanoic acid hydroxyamide] belongs 4.78; to `CCCCC(Nc1ccccc1F)C(=O)NO` (stereo not drawn) [Compound 167291, 2-(2-Fluoro-phenylamino)-hexanoic acid hydroxyamide], < 3.52; to `Cc1cc(N[C@H](CCCCNS(=O)(=O)c2ccccc2)C(=O)NO)cc(C)c1F` [Compound 167615, (R)-6-Benzenesulfonylamino-2-(4-fluoro-3,5-dimethyl-phenylamino)-hexanoic acid hydroxyamide], 6.08. `CCC[C@@H](Nc1cc(C)c(F)c(C)c1)C(=O)NO` [Compound 167391, (R)-2-(4-Fluoro-3,5-dimethyl-phenylamino)-pentanoic acid hydroxyamide] had a pKi of 6.30.

The compound `CCCCC(Nc1cc(Cl)cc(Cl)c1)C(=O)NO` (stereo not drawn) [Compound 167718, 2-(3,5-Dichloro-phenylamino)-hexanoic acid hydroxyamide] gave a negative logarithm of the Ki (pKi) of 4.91. To `Cc1cccc(CNCCCC[C@@H](Nc2cc(C)c(F)c(C)c2)C(=O)NO)c1` [Compound 167698, (R)-2-(4-Fluoro-3,5-dimethyl-phenylamino)-6-(3-methyl-benzylamino)-hexanoic acid hydroxyamide] belongs 6.80. To `CCCCC(Nc1ccccc1OC)C(=O)NO` (stereo not drawn) [Compound 167293, 2-(2-Methoxy-phenylamino)-hexanoic acid hydroxyamide] belongs < 3.52; to `Cc1cc(N[C@H](CCCCNC(=O)OC(C)(C)C)C(=O)NO)cc(C)c1F` [Compound 167561, (R)-[5-(4-Fluoro-3,5-dimethyl-phenylamino)-5-hydroxycarbamoyl-pentyl]-carbamic acid tert-butyl ester], 6.15; to `Cc1cc(N[C@H](CCCCNCc2ccccc2)C(=O)NO)cc(C)c1F` [Compound 167736, (R)-6-Benzylamino-2-(4-fluoro-3,5-dimethyl-phenylamino)-hexanoic acid hydroxyamide], 6.96.

Take `CCCCC(Nc1ccc(Cl)cc1)C(=O)NO` (stereo not drawn) [Compound 167256, 2-(4-Chloro-phenylamino)-hexanoic acid hydroxyamide]: the pKi was 3.73. On to `Cc1cc(N[C@H](CCCCNCc2cc(C)c(F)c(C)c2)C(=O)NO)ccc1F` [Compound 167968, (R)-6-(4-Fluoro-3,5-dimethyl-benzylamino)-2-(4-fluoro-3-methyl-phenylamino)-hexanoic acid hydroxyamide], for which the pKi was 7.00. To `CCCCC(Nc1cc(C)c(OC)c(C)c1)C(=O)NO` (stereo not drawn) [Compound 167325, 2-(4-Methoxy-3,5-dimethyl-phenylamino)-hexanoic acid hydroxyamide] belongs 4.52; to `CCCCC(Nc1cccc(-c2ccccc2)c1)C(=O)NO` (stereo not drawn) [Compound 167202, 2-(Biphenyl-3-ylamino)-hexanoic acid hydroxyamide], 3.63; to `Cc1cc(N[C@H](CCCCNC(=O)CCC(=O)O)C(=O)NO)cc(C)c1F` [Compound 167620, (R)—N-[5-(4-Fluoro-3,5-dimethyl-phenylamino)-5-hydroxycarbamoyl-pentyl]-succinamic acid], 5.46. On to `Cc1cc(N[C@H](C)C(=O)NO)cc(C)c1F` [Compound 167497, (R)-2-(4-Fluoro-3,5-dimethyl-phenylamino)-N-hydroxy-propionamide], for which the pKi was 6.33. The compound `Cc1cc(N[C@H](CCCCNC(=O)CCc2ccccc2)C(=O)NO)ccc1F` [Compound 167993, (R)-2-(4-Fluoro-3-methyl-phenylamino)-6-(3-phenyl-propionylamino)-hexanoic acid hydroxyamide] gave a pKi of 6.06. In turn, `Cc1cc(COCCCC[C@@H](Nc2cc(C)c(F)c(C)c2)C(=O)NO)ccc1F` [Compound 168116, (R)-2-(4-Fluoro-3,5-dimethyl-phenylamino)-6-(4-fluoro-3-methyl-benzyloxy)-hexanoic acid hydroxyamide] gave a pKi of 6.15. For `Cc1cc(NC(CCC(F)(F)F)C(=O)NO)cc(C)c1F` (stereo not drawn) [Compound 167482, 5,5,5-Trifluoro-2-(4-fluoro-3,5-dimethyl-phenylamino)-pentanoic acid hydroxyamide] the value was 5.96; for `CCCCC(Nc1cccc(C#N)c1)C(=O)NO` (stereo not drawn) [Compound 167719, 2-(3-Cyano-phenylamino)-hexanoic acid hydroxyamide], 4.31.

Turning to `Cc1cc(N[C@H](CCCCNC(=O)C(c2ccccc2)c2ccccc2)C(=O)NO)cc(C)c1F` [Compound 167610, (R)-6-Diphenylacetylamino-2-(4-fluoro-3,5-dimethyl-phenylamino)-hexanoic acid hydroxyamide], the pKi was 5.87. For `Cc1cc(N[C@H](CCCCNCc2ccc(Cl)s2)C(=O)NO)ccc1F` [Compound 168008, (R)-6-[(5-Chloro-thiophen-2-ylmethyl)-amino]-2-(4-fluoro-3-methyl-phenylamino)-hexanoic acid hydroxyamide] the value was 7.22. For the compound `Cc1cc(N[C@H](CC2CCCCC2)C(=O)NO)cc(C)c1F` [Compound 167405, (R)-3-Cyclohexyl-2-(4-fluoro-3,5-dimethyl-phenylamino)-N-hydroxy-propionamide], the negative-log Ki (pKi) is 5.83. Against the preceding compound, the pKi is 1.39 log units lower. To `Cc1cc(NC(CCCC(F)(F)F)C(=O)NO)cc(C)c1F` (stereo not drawn) [Compound 167483, 6,6,6-Trifluoro-2-(4-fluoro-3,5-dimethyl-phenylamino)-hexanoic acid hydroxyamide] belongs 5.89.
